Values of other authors as cited in patent US4672107A, “Cell growth inhibitor and method” (Inbex, Inc., priority 1985, dated 1987).

System: human embryonic palatal mesenchymal cells
Settings: Yoneda and Pratt, Science 1981

Substance: Epidermal Growth Factor (NSDSECPLSHDGYCLHDGVCMYIEALDKYACNCVVGYIGERCQYRDLKWWELR; Epidermal growth factor; UniProt P01133 971-1023, looked up) [Epidermal Growth Factor (EGF)]
- stimulation of incorporation of 3[H]-thymidine into newly synthesized DNA: a little more than twofold
